Counter-ions that a name gives are not always drawn. Like-named read-outs stand apart in the source and are kept apart here.
Experiments:
[1] = tested on: spontaneous dilated cardiomyopathy (J2N-k) hamster model; test: Spontaneous dilated cardiomyopathy (J2N-k) hamster model, 8-week administration from 20 weeks of age (Tests 1-3): echocardiography, body weight; details: for Body weight 0 W: Test 2, at grouping; for Minimal effective dose (screening 2): mg/kg twice per day, oral preparation
Experimental: The doses of pharmaceutical products were determined based on the no-observed-adverse-effect levels in a long-term toxicity study using rats. δ-Glycan-deficient spontaneous dilated cardiomyopathy (J2N-k) male hamsters (Japan SLC, Inc.) were delivered at 18 weeks of age. After a 2-week quarantine/acclimation, echocardiography was performed.
Each of the pharmaceutical products (A to K and O) was individually administered twice daily (at an interval of 8 hours or more) by oral gavage, and echocardiography was performed after 4 and 8 weeks (before dissection). Differences from the value before the start of administration (at the time of grouping) (amount of change: Δ) in each group were examined, and the cardiac function (EF value, FS %, etc.) was compared with that in the vehicle group (Group 1). Moreover, the heart was removed […] after the start of administration, and electron microscopy and RNA protein measurement were performed. Specimens for immunopathology were also collected and evaluated.
Each pharmaceutical product was individually suspended in 0.5% CMC-Na (sodium carboxymethylcellulose; Wako Pure Chemical Industries, Ltd.) before use, and administered. […] To Group 1 (control), 0.5% CNC-Na (vehicle) was administered.
Each pharmaceutical product was individually suspended in 0.5% CMC-Na (sodium carboxymethylcellulose; Wako Pure Chemical Industries, Ltd.) before use, and administered. Test substance G was suspended in distilled water before use, and administered.
Reason the doses were set (assuming that the adult body weight was 60 kg, the same amounts as the maximum clinical doses were set) • 1) The clinical dose of C (ozagrel; OZ) was 200 mg twice per day. The dose was thus set to 3.3 mg/kg twice per day. • 2) The clinical dose of D (cilostazol; CS) was 100 mg twice per day. The dose was thus set to 1.7 mg/kg twice per day. • 3) The clinical dose of E (pirfenidone; PF) was 600 mg three times per day, i.e., 1800 mg/day in total. The dose was thus set to 15 mg/kg twice per day. • 4) The clinical dose of G (nintedanib sulfonate; OB) was 150 mg twice per day. The dose was thus set to 2.5 mg/kg twice per day. • 5) The clinical dose of P (carvedilol; CV) was 10 mg twice per day. The dose was thus set to 0.17 mg/kg twice per day. • 6) Preparation 2 (PLGA⋅MS preparation of camostat; B⋅MS): the clinical dose of active substance camostat was 200 mg three times per day, i.e., 600 mg/day in total; thus, intermittent subcutaneous administration at a daily dose of 10 mg/kg once every 4 weeks, twice in total was set. The dose was 1/28 of the total oral dose amount.
The dose volume in oral administration was 5 mL/kg (the amount of liquid to be administered to each animal was calculated based on the most recent body weight), and administered by oral gavage using a polypropylene disposable syringe and a rat stomach tube.
The administration period of each pharmaceutical product was 8 weeks.

rats [2] = details: cited from earlier work
[3] = tested on: BLM-induced mouse pulmonary fibrosis model; details: cited from earlier work
[4] = human, in vivo; cited from earlier work
rats [5] = test: Repeated oral administration toxicity study in rats (dose-setting basis); details: mg/kg twice per day, oral preparation
From the text: The dose-setting basis for the doses of the test substances used in pharmacological tests is as described below.

[6] = tested on: rat coronary artery complete ischemia model; test: Model of ischemia (MI) by rat coronary artery complete ligation (Tests 1 and 2): echocardiography, body weight; details: for Body weight / value of change in E.F. compared with E.F. on Day 1 / value of change in F.S. compared with F.S. on Day 1: MI Test 2, B 150, G 5, I 30, C 10 mg/kg p.o. b.i.d.; for Body weight: B MS 100, C MS 50, I MS 30 mg/kg s.c. single injection, mean; for value of change in E.F. compared with E.F. on Day 1 / value of change in F.S. compared with F.S. on Day 1: B-MS 100, C-MS 50, F-MS 30 mg/kg s.c. single injection, mean ± S.D.
rats [7] = details: cited from earlier work; remark: listed apart in the source
[8] = Test 2, p.o. b.i.d., NOAEL-based dose

| SMILES | Body weight 0 W [1] | LVIDd 4 W ([1]; Test 2, p.o. b.i.d.) | LVIDd 8 W ([1]; Test 2, p.o. b.i.d.) | LVIDs 4 W ([1]; Test 2, p.o. b.i.d.) | LVIDs 8 W ([1]; Test 2, p.o. b.i.d.) | Body weight 2 W [1, 8] | Body weight 3 W [1, 8] | Body weight 4 W [1, 8] | Body weight 5 W [1, 8] | Minimal effective dose (screening 2) [1] | Maximum no-observed-adverse-effect level (screening 1) (rats [5]) | Body weight ([6]; 1 Day) | Body weight ([6]; 7 Day) | Body weight ([6]; 14 Day) | value of change in E.F. compared with E.F. on Day 1 ([6]; 14 Day) | value of change in F.S. compared with F.S. on Day 1 ([6]; 14 Day) | Body weight ([6]; 21 Day) | Body weight ([6]; 29 Day) | value of change in E.F. compared with E.F. on Day 1 ([6]; 29 Day) | value of change in F.S. compared with F.S. on Day 1 ([6]; 29 Day) | other results |
| --- | --- | --- | --- | --- | --- | --- | --- | --- | --- | --- | --- | --- | --- | --- | --- | --- | --- | --- | --- | --- | --- |
| COC(=O)c1ccc2c(c1)NC(=O)/C2=C(\Nc1ccc(N(C)C(=O)CN2CCN(C)CC2)cc1)c1ccccc1 [Compound G, Nintedanib ethanesulfonate] | 121.6 g | 6.9 mm | 7.2 mm | 5.7 ± mm | 6.1 ± mm | 122.0 g | 123.8 g | 126.1 g | 127.1 g | 2.5 mg/kg | 5 mg/kg | 240.9 g | 248.1 g | 273.9 g | <−6.2 ± 1.8> % | <−3.4 ± 1.1> % | 290.5 g | 311.0 g | <−11.0 ± 2.7> % | <−5.8 ± 3.6> % | % FS 4 W [1, 8]: significantly higher; % FS value of change at 4 W compared with 0 W [1, 8]: significantly higher; Body weight 1 W [1, 8]: 121.3 g; Body weight 7 W [1, 8]: 129.2 g; Body weight 8 W [1, 8]: 128.9 g; EF 4 W [1, 8]: significantly higher; LVIDs 8 W ([1]; Test 2, p.o. b.i.d., listed as nintedanib): significantly lower; Cardiac function (EF, FS %) actual measured value and/or amount of change compared with control, 8 W value ([1]; Test 3, clinical dose): significant cardiac function improvement effect; No-observed-adverse-effect level (rats [2]; rats, 6 months): 5 mg/kg; Dose at which toxic findings were observed (rats [2]; repeated administration in rats, duration per compound): 20 mg/kg/day; Inhibitory effect on pulmonary fibrosis, 60 mg/kg versus 30 mg/kg ([3]; prophylactic administration Day 0 to Day 14, once daily oral gavage): slightly higher inhibitory effect on pulmonary fibrosis; Dose with apparent effect on both inflammation and fibrosis ([3]; therapeutic administration Day 7 to Day 21, once daily oral gavage): 60 mg/kg; Abdominal pain cases [4]: 10.2%; Diarrhea cases [4]: 53.6%; Elevated AST (GOT) and/or ALT (GPT) / liver enzyme cases [4]: 10.5%; Nausea cases (cilostazol: nausea/vomiting) [4]: 19.1%; EF actual measured value and/or amount of change compared with control ([6]; MI Test 2, Day 14 and Day 29): significantly higher; Values of cardiac function (EF, FS %) compared with control ([6]; MI Test 2, oral b.i.d. 4 weeks or single subcutaneous administration): significantly higher |
| CCCc1nn(C)c2c(=O)[nH]c(-c3cc(S(=O)(=O)N4CCN(C)CC4)ccc3OCC)nc12 [Compound I, Sildenafil citrate] | 120.4 g | 7.1 mm | 7.3 mm | 5.9 mm | 6.2 ± mm | 122.3 g | 123.7 g | 125.5 g | 126.9 g | 0.4 mg/kg | 30 mg/kg | 240.3 g | 237.3 g | 263.0 g | <−5.1 ± 2.5> % | <−2.8 ± 1.4> % | 278.3 g | 297.5 g | <−7.6 ± 4.3> % | <−4.1 ± 2.3> % | Body weight 6 W [1, 8]: 128.9 g; Lethal dose (rats [7]; intravenous injection in rats): ≥ 10 mg/kg; Lethal dose (rats [7]; oral administration): ≥ 1000 mg/kg |

Source: patent publication US20200360391A1, “Medicinal Composition for Treating Intractable Heart Disease” (Osaka University, priority 2016, published 2020)
